In patent publication US11324725B2, “Compositions and methods for the inhibition of pruritus” (The United States of America, as represented by the …, priority 2017, dated 2022):
Entries after “also recorded” stand apart in the source; their conditions may differ. Where a SMILES comes first, the peptide text is derived from it. Bridges are numbered along the chain shown (N, C = ends). [ ]: non-standard residue; d: D form. dTic = O=C(O)[C@H]1Cc2ccccc2CN1; Cha = N[C@@H](CC1CCCCC1)C(=O)O

Key:
hNpr1 = target: T1, hNpr1 (Homo sapiens, UniProt P16066); assay: GloSensor assay in 96-well format, HEK-hNpr1-cGMP-sensor cells; assay type: cell-based; details: 5 μM antagonist, increasing hNppa; GloSensor and membrane cyclase assays (FIGS. 5B-C)
T1 sequence (P16066 33-1061): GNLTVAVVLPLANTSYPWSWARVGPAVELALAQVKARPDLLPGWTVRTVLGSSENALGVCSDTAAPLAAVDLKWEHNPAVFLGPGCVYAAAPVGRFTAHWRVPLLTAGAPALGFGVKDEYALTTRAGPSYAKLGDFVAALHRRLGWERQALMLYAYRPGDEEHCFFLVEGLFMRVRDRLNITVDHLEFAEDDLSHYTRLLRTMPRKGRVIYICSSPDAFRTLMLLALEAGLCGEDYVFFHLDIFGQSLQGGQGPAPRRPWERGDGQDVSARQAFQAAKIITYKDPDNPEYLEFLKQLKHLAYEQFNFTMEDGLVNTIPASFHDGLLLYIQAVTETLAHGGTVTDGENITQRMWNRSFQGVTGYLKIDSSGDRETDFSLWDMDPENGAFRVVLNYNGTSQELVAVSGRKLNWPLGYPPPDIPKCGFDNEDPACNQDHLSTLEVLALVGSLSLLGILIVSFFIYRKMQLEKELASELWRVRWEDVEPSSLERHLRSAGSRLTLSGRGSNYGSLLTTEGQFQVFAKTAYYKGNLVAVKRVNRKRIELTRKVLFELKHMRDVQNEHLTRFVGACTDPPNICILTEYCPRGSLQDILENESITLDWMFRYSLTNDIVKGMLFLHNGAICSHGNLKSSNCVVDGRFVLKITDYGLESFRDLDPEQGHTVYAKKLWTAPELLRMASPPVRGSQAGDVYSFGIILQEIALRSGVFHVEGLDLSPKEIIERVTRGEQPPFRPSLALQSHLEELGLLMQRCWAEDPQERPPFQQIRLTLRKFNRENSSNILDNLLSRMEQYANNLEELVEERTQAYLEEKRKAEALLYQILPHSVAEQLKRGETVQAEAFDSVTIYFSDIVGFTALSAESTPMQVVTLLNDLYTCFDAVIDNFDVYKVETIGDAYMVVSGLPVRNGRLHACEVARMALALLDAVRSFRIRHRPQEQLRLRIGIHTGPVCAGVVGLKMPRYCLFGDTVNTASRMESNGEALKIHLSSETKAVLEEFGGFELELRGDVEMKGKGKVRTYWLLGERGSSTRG
Method: (§1) Before the measurement (24 hours in advance), 3×10^4 cells were seeded into white 96-well plates (PerkinElmer, Waltham, Mass.), coated with 0.1% poly(D-lysine), and assays conducted as recommended by the manufacturer (Promega). Medium was aspirated and cells were loaded for two hours at room temperature with 2% GoSensor™ reagent diluted in CO2-independent media (ThermoFisher) supplemented with 2 mM L-glutamine and 10% FBS (assay medium). Luminescence was measured on a BioTek Synergy™ NEO (Winooski, Vt.) plate reader at room temperature. After a baseline measurement of 3-5 minutes, assay medium as a control or assay medium with agonist was manually added, and luminescence was measured for 30 minutes at ˜ 1/60 Hz. For compounds tested for Npr1 and Npr2 inhibition, the compounds were added after baseline measurements, and luminescence was read for 5 minutes before addition of agonist. Luminescence was then normalized to baseline measurements and plotted against the time. Ligand-induced changes of cGMP production were quantified by determining the area under the curve. To determine efficacy and potency of agonists, ligand-induced changes were normalized to medium only addition and plotted against the ligand concentration. […] To quantify […] of compounds, compound-induced changes of agonist-induced cGMP production were normalized to vehicle controls, plotted against compound concentration, and fit with a four-parameter logistic regression. Effects of A-71915 on basal mNpr1 activity were fitted with a bell-shaped regression (equation indicated below).
Additional screens of the fifteen candidates corroborated hNpr1 inhibition. In particular, HEK-hNpr1-cGMP-sensor cells were seeded in 96-wells and stimulated with 60 pM hNppa 5 minutes after addition of candidate compounds or A-71915 and luminescence was measured for 30 minutes. Inhibitors were titrated to calculate apparent potency (IC50) and efficacy (Imax) of inhibition of hNppa-induced cGMP production.

mice = details: reported; cited from earlier work
mNpr1 = target: T2, mNpr1 (Mus musculus, UniProt P18293); assay: GloSensor assay, HEK-293 cells transiently expressing mNpr1 and pGS-40F; assay type: cell-based; details: no agonist
T2 construct: host or cells: HEK-293, transient co-transfection with pGS-40F
T2 sequence (P18293 29-1057): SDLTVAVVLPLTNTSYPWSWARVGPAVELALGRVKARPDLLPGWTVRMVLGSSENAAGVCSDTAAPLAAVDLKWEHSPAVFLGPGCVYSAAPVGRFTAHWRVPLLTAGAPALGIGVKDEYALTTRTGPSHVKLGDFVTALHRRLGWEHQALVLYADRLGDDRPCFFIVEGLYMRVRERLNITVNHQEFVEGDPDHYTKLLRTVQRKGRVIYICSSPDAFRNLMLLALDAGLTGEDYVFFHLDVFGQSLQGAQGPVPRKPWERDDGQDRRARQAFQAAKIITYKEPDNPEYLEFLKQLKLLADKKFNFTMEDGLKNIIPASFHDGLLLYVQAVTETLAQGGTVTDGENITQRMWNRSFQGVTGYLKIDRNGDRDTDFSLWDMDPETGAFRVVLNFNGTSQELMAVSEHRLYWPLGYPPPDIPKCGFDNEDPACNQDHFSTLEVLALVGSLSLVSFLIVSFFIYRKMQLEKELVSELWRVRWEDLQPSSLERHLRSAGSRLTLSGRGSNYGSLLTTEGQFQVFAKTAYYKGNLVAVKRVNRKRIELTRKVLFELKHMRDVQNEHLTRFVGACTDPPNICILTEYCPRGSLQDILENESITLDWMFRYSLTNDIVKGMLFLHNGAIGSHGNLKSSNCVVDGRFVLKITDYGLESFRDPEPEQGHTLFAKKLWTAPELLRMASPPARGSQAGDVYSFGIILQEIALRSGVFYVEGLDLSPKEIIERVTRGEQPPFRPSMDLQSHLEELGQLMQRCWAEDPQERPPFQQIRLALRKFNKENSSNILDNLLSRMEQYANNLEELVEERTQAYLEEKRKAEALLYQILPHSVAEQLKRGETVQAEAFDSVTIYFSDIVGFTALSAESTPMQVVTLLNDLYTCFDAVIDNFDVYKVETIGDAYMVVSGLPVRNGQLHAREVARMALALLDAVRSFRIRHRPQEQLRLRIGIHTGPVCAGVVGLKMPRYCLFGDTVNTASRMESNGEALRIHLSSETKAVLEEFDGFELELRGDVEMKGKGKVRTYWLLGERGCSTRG
Method: HEK-293 cells (American Type Culture Collection “ATTC,” Manassas, Va.) were cultured in DMEM/F12 supplemented with 2 mM L-glutamine, 10% FBS, 100 U/ml penicillin, and 100 μg/ml streptomycin. For transient expression, 8×10^5 cells were seeded in 6-wells, cultured for 24 hours, and then transfected using TransIT®-293 (Mirus, Madison, Wis.) according to the manufacturer's instructions. After transfection (48 hours), cells were used to measure intracellular cGMP production. HEK-293 cell clones stably expressing pGloSensor™-40F alone (HEK-cGMP-sensor cells) or in addition, human Npr1 (“hNpr1”) (HEK-hNpr1-cGMP-sensor cells) or human Npr2 (HEK-hNpr2-cGMP-sensor cells) were generated by co-transfection with pEAK8-GFP and selection with 1 μg/ml puromycin. Stable expression of transgenes was verified by measuring ligand-induced cGMP production with the cGMP biosensor.
as §1
Because the Npr1 receptor is a ligand-dependent guanylate cyclase, measuring agonist-induced changes in intracellular cGMP levels was used to examine inhibition of Npr1. To measure the production of cGMP by Npr1, a circular permutated Firefly luciferase molecule which was functionally linked to the cGMP binding domain of human PDE5 (GloSensor™ technology pGS-40F) was used, as described in Example 1. This reporter molecule together with a luciferase substrate (GoSensor™ reagent) and a sensitive method for detection of luciferase activity (emitted light) permitted real-time measurement of cGMP levels in live cells (FIG. 1A). The cGMP sensor was expressed in HEK293 cells and luciferase activity after stimulation with the NO-donor sodium nitroprusside (SNP), which activates ubiquitously expressed soluble guanylate cyclases, was examined. […] Next, mNpr1 and the cGMP sensor were transiently expressed in HEK293 cells and agonist dependent receptor activation was examined. […] Next, the effects of A-71915 on mNpr1 were tested.
For Table 6, HEK-293 cells transiently expressing mNpr1 and pGS-40F were stimulated with 1 nM mNppb 5 minutes after addition of candidate compounds or A-71915 and luminescence was measured for 30 minutes. Inhibitors were titrated to calculate apparent IC50 values, as described in methods.

Compound	Effect on hNppa concentration-response at fixed antagonist concentration (hNpr1)	Block of acute itch responses elicited by intradermal pruritogens (mice)	Effect on basal mNpr1 activity in the absence of natriuretic peptides (mNpr1)
1-cyclohexyl-3-(cyclopropylmethyl)-N-((3-methylisoxazol-5-yl)methyl)-2-oxo-2,3-dihydro-1H-benzo[d]imidazole-5-carboxamide [JS-11]	reduced maximal responses even at extremely high hNppa concentrations		
CC[C@H](C)[C@@H]1NC(=O)[C@H](CCCNC(=N)N)NC(=O)CNC(=O)CNC(=O)[C@H](CC2CCCCC2)NC(=O)[C@@H](NC(=O)[C@@H](N)CCCNC(=N)N)CSSC[C@@H](C(N)=O)NC(=O)[C@H](CCCNC(=N)N)NC(=O)[C@H]2Cc3ccccc3CN2C(=O)[C@H]([C@@H](C)CC)NC(=O)[C@H](CCCNC(=N)N)NC(=O)[C@H](CC(=O)O)NC1=O [Compound A-71915, reference compound] (H-RC[Cha]GGRIDRI[dTic]RC-NH2; disulfide 2-13; N-terminus and C-terminus assumed)	right-shift in hNppA potency without any effect on maximal efficacy	does not block acute itch responses	partial agonist; also recorded: directly stimulates basal mNpr1 activity
